Measured values published in ChEMBL document CHEMBL1137819, “New 9-thiocyanatopupukeanane sesquiterpenes from the nudibranch Phyllidia varicosa and its sponge-prey Axinyssa aculeata” (J Nat Prod, 2003).
Where “and” joins values, the source holds several entries; their conditions need not be identical. Equal values may be shown once. Calls of active or inactive are those of the source. No cut-off for these calls is given here.

Assays:
[1] = test system: Candida albicans; experiment: Antimicrobial activity against Candida albicans after 24 hrs; format: functional, organism-based
[2] = test system: Artemia salina; experiment: Toxicity against Artemia salina assessed as mortality after 24 hrs; format: organism-based; settings: in vivo
[3] = test system: Bacillus subtilis; experiment: Antimicrobial activity against Bacillus subtilis after 24 hrs; format: functional, organism-based

Compound: CC(C)[C@@H]1C[C@]2(C)C[C@]3(C)C[C@H]1[C@H]2C[C@@H]3SC#N.CC(C)[C@@H]1C[C@]2(C)C[C@]3(C)C[C@H]1[C@H]2C[C@H]3SC#N
- Activity [1]: Active
- Activity [2]: 90% and 35%
- LD50 [2]: 5 ppm
- Activity [3]: inactive
